What was measured:
[1] = system: Pseudomonas aeruginosa; experiment: Antibacterial activity against multidrug-resistant Pseudomonas aeruginosa assessed as reduction in microbial growth incubated for 24 hrs by microdilution assay; format: functional
[2] = Gradient chromatographic hydrophobicity index of the compound at pH 3.7 by HPLC analysis; format: ADME
[3] = system: Enterococcus faecium; experiment: Antibacterial activity against vancomycin resistant Enterococcus faecium 419/ANA assessed as reduction in microbial growth incubated for 24 hrs by microdilution assay; format: functional
[4] = system: Staphylococcus aureus; experiment: Antibacterial activity against methicillin resistant Staphylococcus aureus 4591/A assessed as reduction in microbial growth incubated for 24 hrs by microdilution assay; format: functional
[5] = system: Pseudomonas aeruginosa; experiment: Antibacterial activity against Pseudomonas aeruginosa ATCC 27853 = CCM 3955 assessed as inhibition of bacterial growth incubated for 24 hrs by microdilution assay; format: functional
[6] = system: Staphylococcus epidermidis; experiment: Antibacterial activity against Staphylococcus epidermidis CCM 7221 assessed as inhibition of bacterial growth incubated for 24 hrs by microdilution assay; format: functional
[7] = system: Escherichia coli; experiment: Antibacterial activity against multidrug-resistant Escherichia coli CE5556 expressing CTX-M-15 assessed as reduction in microbial growth incubated for 24 hrs by microdilution assay; format: functional
[8] = Hemolytic activity in human RBC assessed as haemoglobin release measured after 3 hr; format: toxicity, cell-based, Erythrocyte; settings: red blood cells (erythrocytes)
[9] = system: Escherichia coli; experiment: Antibacterial activity against Escherichia coli ATCC 25922 = CCM 3954 assessed as inhibition of bacterial growth incubated for 24 hrs by microdilution assay; format: functional
[10] = system: Staphylococcus aureus; experiment: Antibacterial activity against Staphylococcus aureus ATCC 29213 = CCM 4223 assessed as inhibition of bacterial growth incubated for 24 hrs by microdilution assay; format: functional
[11] = system: Enterococcus faecalis; experiment: Antibacterial activity against Enterococcus faecalis ATCC 29212 = CCM 4224 assessed as inhibition of bacterial growth incubated for 24 hrs by microdilution assay; format: functional
[12] = system: Escherichia coli; experiment: Antibacterial activity against Escherichia coli ATCC 25922 = CCM 3954 assessed as inhibition of bacterial growth incubated for 24 hrs in presence of BSA by microdilution assay; format: functional
[13] = system: Staphylococcus aureus; experiment: Antibacterial activity against Staphylococcus aureus ATCC 29213 = CCM 4223 assessed as inhibition of bacterial growth incubated for 24 hrs in presence of BSA by microdilution assay; format: functional

Cl.Cl.Cl.Cl.Cl.Cl.NCCCN(CCCN)CCP(=O)(OCCCCCCCCOP(=O)(CCN(CCCN)CCCN)OCCc1ccccc1)OCCc1ccccc1 (centres undefined)
MIC [1]: 128 µg/mL | CHI [2]: 27.3 | MIC [3]: 128 µg/mL | MIC [4]: 16 µg/mL | MIC [5]: 128 µg/mL | MIC [6]: 8 µg/mL | MIC [7]: 128 µg/mL | HC50 at 3 h [8]: > 200 µg/mL | MIC [9]: 128 µg/mL | MIC [10]: 16 µg/mL | MIC [11]: 128 µg/mL | MIC [12]: 128 µg/mL | MIC [13]: 32 µg/mL

CCCCCOP(=O)(CCN(CCCN)CCCN)OCCCCCCCCCCOP(=O)(CCN(CCCN)CCCN)OCCCCC.Cl.Cl.Cl.Cl.Cl.Cl (centres undefined)
MIC [1]: 8 µg/mL | CHI [2]: 31.3 | MIC [3]: 128 µg/mL | MIC [4]: 2 µg/mL | MIC [5]: 16 µg/mL | MIC [6]: 1 µg/mL | MIC [7]: 128 µg/mL | HC50 at 3 h [8]: 159 µg/mL | MIC [9]: 2 µg/mL | MIC [10]: 2 µg/mL | MIC [11]: 32 µg/mL | MIC [12]: > 128 µg/mL | MIC [13]: 8 µg/mL

CC/C=C\CCCOP(=O)(CCN(CCCN)CCCN)OCCCCCOP(=O)(CCN(CCCN)CCCN)OCCC/C=C\CC.Cl.Cl.Cl.Cl.Cl.Cl (centres undefined)
MIC [1]: > 128 µg/mL | CHI [2]: 27.7 | MIC [3]: > 128 µg/mL | MIC [4]: 32 µg/mL | MIC [5]: > 128 µg/mL | MIC [6]: 8 µg/mL | MIC [7]: > 128 µg/mL | HC50 at 3 h [8]: > 200 µg/mL | MIC [9]: 128 µg/mL | MIC [10]: 16 µg/mL | MIC [11]: > 128 µg/mL | MIC [12]: > 128 µg/mL | MIC [13]: 64 µg/mL

Cl.Cl.Cl.Cl.Cl.Cl.NCCCN(CCCN)CCP(=O)(OCCCCCCCCCCCCOP(=O)(CCN(CCCN)CCCN)OCCc1ccccc1)OCCc1ccccc1 (centres undefined)
MIC [1]: 8 µg/mL | CHI [2]: 34.8 | MIC [3]: 32 µg/mL | MIC [4]: 4 µg/mL | MIC [5]: 8 µg/mL | MIC [6]: 0.5 µg/mL | MIC [7]: 16 µg/mL | HC50 at 3 h [8]: 358 µg/mL | MIC [9]: 4 µg/mL | MIC [10]: 1 µg/mL | MIC [11]: 4 µg/mL | MIC [12]: 8 µg/mL | MIC [13]: 2 µg/mL

Cl.Cl.Cl.Cl.Cl.Cl.NCCCN(CCCN)CCP(=O)(OCCCCCCOP(=O)(CCN(CCCN)CCCN)OCCc1ccccc1)OCCc1ccccc1 (centres undefined)
MIC [1]: > 128 µg/mL | CHI [2]: 11.9 | MIC [3]: > 128 µg/mL | MIC [4]: 64 µg/mL | MIC [5]: > 128 µg/mL | MIC [6]: 64 µg/mL | MIC [7]: > 128 µg/mL | HC50 at 3 h [8]: > 200 µg/mL | MIC [9]: > 128 µg/mL | MIC [10]: 64 µg/mL | MIC [11]: > 128 µg/mL | MIC [12]: > 128 µg/mL | MIC [13]: > 128 µg/mL

CC(C)COP(=O)(CCN(CCCN)CCCN)OCCCCCCCCCCOP(=O)(CCN(CCCN)CCCN)OCC(C)C.Cl.Cl.Cl.Cl.Cl.Cl (centres undefined)
MIC [1]: 64 µg/mL | CHI [2]: 35 | MIC [3]: 128 µg/mL | MIC [4]: 16 µg/mL | MIC [5]: 128 µg/mL | MIC [6]: 8 µg/mL | MIC [7]: 128 µg/mL | HC50 at 3 h [8]: > 500 µg/mL | MIC [9]: > 128 µg/mL | MIC [10]: 32 µg/mL | MIC [11]: 64 µg/mL | MIC [12]: > 128 µg/mL | MIC [13]: 16 µg/mL

Cl.Cl.Cl.Cl.Cl.Cl.NCCCN(CCCN)CCP(=O)(OCCCCCCCOP(=O)(CCN(CCCN)CCCN)OCCCC(F)(F)F)OCCCC(F)(F)F (centres undefined)
MIC [1]: > 128 µg/mL | CHI [2]: 24.6 | MIC [3]: > 128 µg/mL | MIC [4]: > 128 µg/mL | MIC [5]: > 128 µg/mL | MIC [6]: 128 µg/mL | MIC [7]: > 128 µg/mL | HC50 at 3 h [8]: > 200 µg/mL | MIC [9]: 128 µg/mL | MIC [10]: > 128 µg/mL | MIC [11]: > 128 µg/mL | MIC [12]: > 128 µg/mL | MIC [13]: > 128 µg/mL

CCCC/C=C\CCOP(=O)(CCN(CCCNC(=N)N)CCCNC(=N)N)OCCCCCCOP(=O)(CCN(CCCNC(=N)N)CCCNC(=N)N)OCC/C=C\CCCC.Cl.Cl.Cl.Cl.Cl.Cl (centres undefined)
MIC [1]: 16 µg/mL | CHI [2]: 333 | MIC [3]: 32 µg/mL | MIC [4]: 1 µg/mL | MIC [5]: 16 µg/mL | MIC [6]: 1 µg/mL | MIC [7]: 2 µg/mL | HC50 at 3 h [8]: 169 µg/mL | MIC [9]: 4 µg/mL | MIC [10]: 1 µg/mL | MIC [11]: 8 µg/mL | MIC [12]: 0.5 µg/mL | MIC [13]: 0.2 µg/mL
